Test results reported in patent US8962648B2, “Tricyclic compounds and PBK inhibitors containing the same” (OncoTherapy Science, Inc., priority 2010, dated 2015).
Where a name gives a salt, the structure may show the parent alone. Read-outs that look alike come from different tables or passages of the source.

Experiments:
PBK = PBK (Homo sapiens (Human), UniProt Q96KB5); assay: Kinase assay (IMAP fluorescence polarization, FITC-labeled histone H3 peptide); type: biochemical
Method: PBK activity was determined in the presence or absence of compounds using fluorescein isothiocyanate-labeled (FITC-labeled) histone H3 peptide as a substrate. […] The serially diluted compounds, 0.8 ng/micro-L PBK (Carna Biosciences) and 100 nM FITC-labeled histone H3 peptide were reacted in a reaction buffer (20 mM HEPES, 0.01% Tween-20, 0.3 mM MgCl2, 2 mM dithiothreitol, 50 micro-M ATP, pH 7.4) at room temperature for 1 hour. The reaction was stopped by the addition of three fold assay volume of progressive binding solution. […] IC50 values were calculated by nonlinear four parameter fit using SigmaPlot, version 10.0 (Systat Software, Inc.).

HT-1197 cells = assay: Cell-based assay, cellular growth (Cell Counting Kit-8, 72 hours), PBK-negative control cells; conditions: Homo sapiens, HT1197, 72 h
Method: (§1) 100 micro-L of cell suspension was seeded onto 96-well microtiter plate (ViewPlate-96FTC, PerkinElmer). […] Cellular growth was determined using Cell Counting Kit-8 (DOJINDO) at 72 hours after the exposure of the candidate inhibitors. […] Accurate IC50 values were calculated as described previously.

A549 cells = assay: Cell-based assay, cellular growth (Cell Counting Kit-8, 72 hours); conditions: Homo sapiens, A549, 72 h
Method: as §1

T47D cells = assay: as above; conditions: Homo sapiens, T47D, 72 h
Method: as §1

BT-549 cells = assay: as above; conditions: Homo sapiens, BT549 cells
Method: as §1

[1] = PBK 0.8 ng/micro-L, 50 micro-M ATP, 100 nM FITC-labeled histone H3 peptide, room temperature 1 hour

Chain of PBK (Q96KB5 whole entry): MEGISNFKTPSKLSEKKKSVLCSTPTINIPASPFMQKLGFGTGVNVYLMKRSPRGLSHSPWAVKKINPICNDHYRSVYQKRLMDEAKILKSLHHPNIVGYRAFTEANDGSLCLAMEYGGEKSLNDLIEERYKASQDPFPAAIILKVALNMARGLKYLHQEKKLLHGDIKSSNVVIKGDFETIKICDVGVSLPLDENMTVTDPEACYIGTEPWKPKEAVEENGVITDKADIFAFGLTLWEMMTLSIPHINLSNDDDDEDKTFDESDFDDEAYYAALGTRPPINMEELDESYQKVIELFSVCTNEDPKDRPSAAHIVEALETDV

Structure (SMILES)	IC50 (PBK; [1])	IC50 (HT-1197 cells)	IC50 (A549 cells)	IC50 (T47D cells)	IC50 (BT-549 cells)	IC50 (PBK)
Cc1cc(O)c(-c2ccc(C(C)CN)c(F)c2)c2c1[nH]c(=O)c1sccc12 (stereo not drawn) [Compound 1190, 9-(4-(1-aminopropan-2-yl)-3-fluorophenyl)-8-hydroxy-6-methylthieno[2,3-c]quinolin-4(5H)-one hydrochloride]	5.1 nM	110 nM	21 nM	19 nM	15 nM	
Cc1cc(O)c(-c2ccc(CCN)cc2)c2c1[nH]c(=O)c1sccc12 [Compound 1191, 9-(4-(2-aminoethyl)phenyl)-8-hydroxy-6-methylthieno[2,3-c]quinolin-4(5H)-one hydrochloride]	19 nM	480 nM	120 nM	73 nM	64 nM	
Cc1cc(O)c(-c2ccc(C(C)CN(C)C)c(F)c2)c2c1[nH]c(=O)c1sccc12 (stereo not drawn) [Compound 1193, 9-(4-(1-(dimethylamino)propan-2-yl)-3-fluorophenyl)-8-hydroxy-6-methylthieno[2,3-c]quinolin-4(5H)-one hydrochloride]		330 nM	130 nM	240 nM	140 nM	46 nM
COc1cc(Cl)c2[nH]c(=O)c3sccc3c2c1-c1ccc([C@@H](C)CN)cc1 [Compound 1201, (R)-9-(4-(1-aminopropan-2-yl)phenyl)-6-chloro-8-methoxythieno[2,3-c]quinolin-4(5H)-one hydrochloride]	20 nM	140 nM	46 nM	120 nM	53 nM	
CC(CCl)NS(=O)(=O)c1ccc(-c2c(O)ccc3[nH]c(=O)c4sccc4c23)cc1 (stereo not drawn) [Compound 1204, N-(1-chloropropan-2-yl)-4-(8-hydroxy-4-oxo-4,5-dihydrothieno[2,3-c]quinolin-9-yl)benzenesulfonamide]	15 nM	15000 nM	710 nM	1900 nM	160 nM	
NCCc1ccc(-c2c(O)cc(Br)c3[nH]c(=O)c4sccc4c23)cc1F [Compound 1213, 9-(4-(2-aminoethyl)-3-fluorophenyl)-6-bromo-8-hydroxythieno[2,3-c]quinolin-4(5H)-one hydrochloride]	19 nM	1700 nM	360 nM	380 nM	230 nM	
COc1cc(C)c2[nH]c(=O)c3sccc3c2c1-c1ccc(CCN)c(F)c1 [Compound 1216, 9-(4-(2-aminoethyl)-3-fluorophenyl)-8-methoxy-6-methylthieno[2,3-c]quinolin-4(5H)-one hydrochloride]	57 nM	640 nM	280 nM	460 nM	210 nM	
Cc1cc(O)c(-c2ccc(CCN)c(F)c2)c2c1[nH]c(=O)c1sccc12 [Compound 1217, 9-(4-(2-aminoethyl)-3-fluorophenyl)-8-hydroxy-6-methylthieno[2,3-c]quinolin-4(5H)-one hydrochloride]	4.7 nM	480 nM	140 nM	84 nM	65 nM	
NCCc1ccc(-c2c(O)cc(Cl)c3[nH]c(=O)c4sccc4c23)cc1F [Compound 1219, 9-(4-(2-aminoethyl)-3-fluorophenyl)-6-chloro-8-hydroxythieno[2,3-c]quinolin-4(5H)-one hydrochloride]	5.5 nM	880 nM	170 nM	180 nM	100 nM	
Cc1cc(O)c(-c2ccc(CCC#N)cc2)c2c1[nH]c(=O)c1sccc12 [Compound 1226, 3-(4-(8-hydroxy-6-methyl-4-oxo-4,5-dihydrothieno[2,3-c]quinolin-9-yl)phenyl)propanenitrile]	92 nM	1300 nM	490 nM	1200 nM	590 nM	
Cc1cc(O)c(-c2ccc(C(C)(C)CN)cc2)c2c1[nH]c(=O)c1sccc12 [Compound 1228, 9-(4-(1-amino-2-methylpropan-2-yl)phenyl)-8-hydroxy-6-methylthieno[2,3-c]quinolin-4(5H)-one hydrochloride]	39 nM	810 nM	160 nM	330 nM	150 nM	
NCC(c1ccc(-c2c(O)ccc3[nH]c(=O)c4sccc4c23)cc1)C1CCCC1 (stereo not drawn) [Compound 1236, 9-(4-(2-amino-1-cyclopentylethyl)phenyl)-8-hydroxythieno[2,3-c]quinolin-4(5H)-one]	4.6 nM	1000 nM	460 nM	800 nM	510 nM	
COc1ccc2[nH]c(=O)c3sccc3c2c1-c1ccc(C(CN)C2CCCC2)cc1 (stereo not drawn) [Compound 1239, 9-(4-(2-amino-1-cyclopentylethyl)phenyl)-8-methoxythieno[2,3-c]quinolin-4(5H)-one hydrochloride]		1700 nM	890 nM	1100 nM	1500 nM	23 nM
Cc1cc(O)c(-c2ccc(CC(C)N)cc2)c2c1[nH]c(=O)c1sccc12 (stereo not drawn) [Compound 1242, 9-(4-(2-aminopropyl)phenyl)-8-hydroxy-6-methylthieno[2,3-c]quinolin-4(5H)-one hydrochloride]		420 nM	120 nM	150 nM	110 nM	37 nM
CC(C)C(CN)c1ccc(-c2c(O)ccc3[nH]c(=O)c4sccc4c23)cc1 (stereo not drawn) [Compound 1252, 9-(4-(1-amino-3-methylbutan-2-yl)phenyl)-8-hydroxythieno[2,3-c]quinolin-4(5H)-one]	1.4 nM	420 nM	160 nM	210 nM	250 nM	
COc1ccc2[nH]c(=O)c3sccc3c2c1-c1ccc(C(CN)C(C)C)cc1 (stereo not drawn) [Compound 1253, 9-(4-(1-amino-3-methylbutan-2-yl)phenyl)-8-methoxythieno[2,3-c]quinolin-4(5H)-one hydrochloride]		1900 nM	760 nM	870 nM	1500 nM	4.1 nM
COc1cc(C)c2[nH]c(=O)c3sccc3c2c1-c1ccc(C(C)CN)c(F)c1 (stereo not drawn) [Compound 1273, 9-(4-(1-aminopropan-2-yl)-3-fluorophenyl)-8-methoxy-6-methylthieno[2,3-c]quinolin-4(5H)-one hydrochloride]		200 nM	71 nM	170 nM	73 nM	40 nM
Cc1cc(O)c(-c2ccc(C(CN)C(C)C)cc2)c2c1[nH]c(=O)c1sccc12 (stereo not drawn) [Compound 1274, 9-(4-(1-amino-3-methylbutan-2-yl)phenyl)-8-hydroxy-6-methylthieno[2,3-c]quinolin-4(5H)-one]	18 nM	180 nM	45 nM	98 nM	66 nM	
COc1cc(C)c2[nH]c(=O)c3sccc3c2c1-c1ccc(C(CN)C(C)C)c(F)c1 (stereo not drawn) [Compound 1283, 9-(4-(1-amino-3-methylbutan-2-yl)-3-fluorophenyl)-8-methoxy-6-methylthieno[2,3-c]quinolin-4(5H)-one hydrochloride]	47 nM	530 nM	560 nM	560 nM	250 nM	
CNCC(c1ccc(-c2c(O)cc(C)c3[nH]c(=O)c4sccc4c23)cc1)C(C)C (stereo not drawn) [Compound 1285, 8-hydroxy-6-methyl-9-(4-(3-methyl-1-(methylamino)butan-2-yl)phenyl)thieno[2,3-c]quinolin-4(5H)-one]	50 nM	280 nM	230 nM	210 nM	110 nM	
CNCC(C)c1ccc(-c2c(OC)cc(C)c3[nH]c(=O)c4sccc4c23)cc1F (stereo not drawn) [Compound 1286, 9-(3-fluoro-4-(1-(methylamino)propan-2-yl)phenyl)-8-methoxy-6-methylthieno[2,3-c]quinolin-4(5H)-one hydrochloride]		220 nM	95 nM	220 nM	93 nM	43 nM
Cc1cc(O)c(-c2ccc(C(CN)C(C)C)c(F)c2)c2c1[nH]c(=O)c1sccc12 (stereo not drawn) [Compound 1288, 9-(4-(1-amino-3-methylbutan-2-yl)-3-fluorophenyl)-8-hydroxy-6-methylthieno[2,3-c]quinolin-4(5H)-one]	20 nM	140 nM	110 nM	74 nM	47 nM	
CNCC(C)c1ccc(-c2c(O)cc(C)c3[nH]c(=O)c4sccc4c23)cc1F (stereo not drawn) [Compound 1293, 9-(3-fluoro-4-(1-(methylamino)propan-2-yl)phenyl)-8-hydroxy-6-methylthieno[2,3-c]quinolin-4(5H)-one]	8.9 nM	190 nM	35 nM	52 nM	32 nM	
CNCC(c1ccc(-c2c(O)cc(C)c3[nH]c(=O)c4sccc4c23)cc1F)C(C)C (stereo not drawn) [Compound 1294, 9-(3-fluoro-4-(3-methyl-1-(methylamino)butan-2-yl)phenyl)-8-hydroxy-6-methylthieno[2,3-c]quinolin-4(5H)-one]	17 nM	340 nM	78 nM	180 nM	85 nM	
